Laboratory results published in patent US7045528B2, “Benzofused heterozryl amide derivatives of thienopyridines useful as therapeutic agents, pharmaceutical compositions including the same, and methods for their use” (Agouron Pharmaceuticals, Inc., priority 2002, dated 2006).

Key:
[1] = target: T1, unphosphorylated VEGF-R2Δ50 (FLVK) (Homo sapiens, UniProt P35968, DEL940-989/E990V); experiment: VEGF-R2 coupled spectrophotometric assay, unphosphorylated VEGF-R2Δ50 (FLVK); format: biochemical; settings: unphosphorylated VEGF-R2Δ50; for inhibition at 0.05 µM: 50 nM compound, read-out: FLVK (% inh @ 50 nM)
T1 construct: VEGF-R2Δ50 contains residues 806–939 and 990–1171; made in house; host or cells: baculovirus/insect cell system
T1 sequence (P35968 with tags, fused parts or gaps DEL940-989/E990V limits assumed): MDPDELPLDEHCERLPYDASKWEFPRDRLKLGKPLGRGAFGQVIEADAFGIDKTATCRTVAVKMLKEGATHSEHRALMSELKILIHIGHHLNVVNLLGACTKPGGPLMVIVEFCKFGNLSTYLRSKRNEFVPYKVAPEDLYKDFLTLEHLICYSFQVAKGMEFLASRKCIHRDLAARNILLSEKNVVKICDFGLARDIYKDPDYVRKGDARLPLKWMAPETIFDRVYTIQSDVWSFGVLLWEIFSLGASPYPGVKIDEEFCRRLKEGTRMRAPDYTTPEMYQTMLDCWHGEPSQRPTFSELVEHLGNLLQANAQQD
Procedure, shortened: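 Baculovirus-expressed human VEGF-R2Δ50 (kinase insert partly deleted, E990V), unphosphorylated form; ADP production coupled via PK/LDH to NADH oxidation, read at 340 nm. 20 mM poly(E4Y1), 3 mM ATP, 60 mM MgCl2, 2 mM MnCl2, 200 mM HEPES pH 7.5; 5–40 nM enzyme. Ki from Morrison tight-binding fit.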

[2] = test system: human umbilical vein endothelial cells (HUVEC); experiment: HUVEC+VEGF proliferation assay; format: cell-based; settings: Homo sapiens, HUVEC; VEGF 6 ng/mL, 72 h, MTT
Procedure, shortened: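 Exponentially growing passage 3–4 HUVEC were starved 24 h in F12K + 1% FBS, given compound (0.1% final DMSO) 1 h before 6 ng/mL final VEGF, then cultured 72 h. Proliferation was read as MTT dye reduction (4 h exposure), absorbance at 595 nm.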

[3] = target: T2, PDGFRβ (Homo sapiens, UniProt P09619); experiment: PAE-PDGFRβ phosphorylation in PAE-PDGFRB cells assay; format: cell-based; settings: PAE cells overexpressing human PDGFRβ, PDGF-BB stimulated; read-out: PAE PDGFR autophos IC50 (nM) AVG
T2 construct: expressed in transfected cells; host or cells: porcine aorta endothelial (PAE)-PDGFRβ cells
T2 sequence (P09619 33-1106): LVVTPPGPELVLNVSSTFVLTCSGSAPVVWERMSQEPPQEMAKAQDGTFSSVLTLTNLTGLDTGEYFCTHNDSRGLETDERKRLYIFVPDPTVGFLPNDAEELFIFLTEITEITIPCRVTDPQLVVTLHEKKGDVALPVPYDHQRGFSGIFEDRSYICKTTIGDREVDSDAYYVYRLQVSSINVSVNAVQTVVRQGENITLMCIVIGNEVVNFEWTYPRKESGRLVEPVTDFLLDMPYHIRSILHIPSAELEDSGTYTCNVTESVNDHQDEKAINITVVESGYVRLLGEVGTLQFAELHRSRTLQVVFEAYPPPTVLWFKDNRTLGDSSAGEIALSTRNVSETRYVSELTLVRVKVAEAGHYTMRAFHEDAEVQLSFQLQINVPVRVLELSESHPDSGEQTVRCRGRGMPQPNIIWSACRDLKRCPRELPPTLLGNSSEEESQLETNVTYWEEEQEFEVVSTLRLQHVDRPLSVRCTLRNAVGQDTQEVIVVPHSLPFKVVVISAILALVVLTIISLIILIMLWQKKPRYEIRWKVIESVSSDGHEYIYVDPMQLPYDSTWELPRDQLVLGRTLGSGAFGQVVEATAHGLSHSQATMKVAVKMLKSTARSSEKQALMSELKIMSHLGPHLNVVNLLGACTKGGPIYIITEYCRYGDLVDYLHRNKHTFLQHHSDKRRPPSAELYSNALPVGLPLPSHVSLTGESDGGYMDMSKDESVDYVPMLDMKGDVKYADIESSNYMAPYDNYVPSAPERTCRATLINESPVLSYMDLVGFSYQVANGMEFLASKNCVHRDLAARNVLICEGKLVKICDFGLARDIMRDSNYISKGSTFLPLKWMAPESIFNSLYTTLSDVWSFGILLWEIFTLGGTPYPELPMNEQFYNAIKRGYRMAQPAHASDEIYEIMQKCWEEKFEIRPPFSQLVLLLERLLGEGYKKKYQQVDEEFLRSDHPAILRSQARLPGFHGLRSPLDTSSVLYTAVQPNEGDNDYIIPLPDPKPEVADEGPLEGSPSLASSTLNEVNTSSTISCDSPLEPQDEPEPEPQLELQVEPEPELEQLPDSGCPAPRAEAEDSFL
Procedure, shortened: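 PAE cells overexpressing human PDGFRβ, serum-starved 16 h (0.1% FBS), were given compound for 1 h at 37 °C (0.5% DMSO) and then stimulated with 1 μg/mL PDGF-BB plus 2 mM Na3VO4 for 8 min. Receptor autophosphorylation was read by capture ELISA (HRP-PY20, TMB, 450 nm); IC50 from 4-parameter fit.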

[4] = test system: Huvec; experiment: bFGF Huvec proliferation; format: cell-based, human; settings: Homo sapiens, HUVEC

Row | Structure (SMILES) | inhibition at 0.05 µM [1] [%] | Ki [1] [nM] | IC50 [2] [nM] | IC50 [3] [nM] | IC50 [4] [nM]
1 | CCc1sc2cc(Oc3ccnc4cc(-c5nccn5C)sc34)ccc2c1C(=O)NC [Example 134, 2-Ethyl 6-{[2-(1-methyl-1H-imidazol-2-yl)thieno[3,2-b]pyridin-7-yl]oxy}benzo[b]thiophene-3-carboxylic acid methylamide] | 94 | 1.44 | 0.656 | 177 | 1070
2 | CNC(=O)c1c(C)sc2cc(Oc3ccnc4cc(-c5nc(CO)cs5)sc34)ccc12 [Example 128] | 91 | 0.57 | 0.13 | 148 | 100
3 | Cc1sc2cc(Oc3ccnc4cc(C(=O)N5CCC5)sc34)ccc2c1C(=O)NCC1CC1 [Example 131, 6-{[2-(Azetidin-1-ylcarbonyl)thieno[3,2-b]pyridin-7-yl]oxy}-2-methylbenzo[b]thiophene-3-carboxylic acid (cyclopropylmethyl)amide] | 96 | 0.2 | 1.89 | 97 | 260
4 | CNC(=O)c1c(C)n(C)c2cc(Oc3ccnc4cc(-c5nccs5)sc34)ccc12 [Example 41, 1,2-Dimethyl-6-(2-thiazol-2-yl-thieno[3,2-b]pyridin-7-yloxy)-1H-indole-3-carboxylic acid methylamide] | 71 | 3.3 | 3.7 | 22.1 | 1220
5 | CO[C@@H]1CCN(C(=O)c2cc3nccc(Oc4ccc5c(C(=O)NCC6CC6)c(C)sc5c4)c3s2)C1 [Example 125, 6-[(2-{[(3R)-3-Methoxypyrrolidin-1-yl]carbonyl}thieno[3,2-b]pyridin-7-yl)oxy]-2-methylbenzo[b]thiophene-3-carboxylic acid (cyclopropylmethyl)amide] | 95 | 0.219 | 2 | 179 | 969
6 | CNC(=O)c1c(Cl)n(C)c2cc(Oc3ccnc4cc(-c5nc(C(C)(C)O)cs5)sc34)ccc12 [Example 75, 2-Chloro-6-{2-[4-(1-hydroxy-1-methyl-ethyl)thiazol-2-yl]-thieno[3,2-b]pyridin-7-yloxy}-1-methyl-1H-indole-3-carboxyllc acid methylamide] | 84 | 2.62 | 1.4 | 16.6 | 10000
7 | CCc1sc2cc(Oc3ccnc4cc(C(=O)N5CC[C@@H](OC)C5)sc34)ccc2c1C(=O)NC [Example 135, 2-Ethyl-6-[(2-{[(3R)-3-methoxypyrrolidin-1-yl]carbonyl}thieno[3,2-b]pyridin-7-yl)oxy]benzo[b]thiophene-3-carboxylic acid methylamide] | 87 | 1.54 | 1.02 | 212 | 559
8 | COC[C@@H]1CCCN1C(=O)c1cc2nccc(Oc3ccc4c(C(=O)NC(C)C)c(C)oc4c3)c2s1 [Example 82, 6-(2-[(S)-2-(methoxymethyl)pyrrolidine-1-carbonyl]thieno[3,2-b]pyridin-7-yloxy)-2-methyl-benzofuran-3-carboxylic acid isopropylamide] | 89 | 0.884 | 2.28 | 53.1 | 2060
9 | CNC(=O)c1c(C)n(C)c2cc(Oc3ccnc4cc(C(=O)N5CC(O)C5)sc34)ccc12 [Example 30, 6-[2-(3-Hydroxy-azetidine-1-carbonyl)-thieno[3,2-b]pyridin-7-yloxy]-1,2-dimethyl-1H-indole-3-carboxylic acid methylamide] | 63 | 6 | 33.6 | 74 | 10000
10 | CO[C@@H]1CCN(C(=O)c2cc3nccc(Oc4ccc5c(C(=O)NCC6CC6)c(C)oc5c4)c3s2)C1 [Example 91, 6-[2-(q-Methoxy-pyrrolidine-1-carbonyl)-thieno[3,2-b]pyridin-7-yloxy]-2-methyl-benzofuran-3-carboxylic acid cyclopropylmethyl-amide] | 94 | 0.356 | 0.168 | 16.5 | 250
11 | CNC(=O)c1c(C)oc2cc(Oc3ccnc4cc(C(=O)N5CCC[C@H]5CO)sc34)ccc12 [Example 80, 6-(2-[(S)-2-(hydroxymethyl)pyrrolidine-1-carbonyl]thieno[3,2-b]pyridin-7-yloxy)-2-methyl-benzofuran-3-carboxylic acid methylamide] | 95 | 0.438 | 0.239 | 31 | 60
12 | CO[C@@H]1CCN(C(=O)c2cc3nccc(Oc4ccc5c(C(=O)NCC(C)C)c(C)oc5c4)c3s2)C1 [Example 87, 6-[2-(3-Methoxy-pyrrolidine-1-carbonyl)-thieno[3,2-b]pyridin-7-yloxy]-2-methyl-benzofuran-3-carboxylic acid isobutyl amide] | 96 | 0.615 | 1.25 | 17.8 | 6040
13 | Cc1c(C(=O)NCCCO)c2ccc(Oc3ccnc4cc(C(=O)N5CCCC5)sc34)cc2n1C [Example 65, 1,2-Dimethyl-6-[2-(pyrrolidine-1-carbonyl)-thieno[3,2-b]pyridin-7-yloxy]-1H-indole-3-carboxylic acid (3-hydroxy-propyl)-amide] | 65 | 7.97 | 10 | 59 | 10000
14 | CO[C@@H]1CCN(C(=O)c2cc3nccc(Oc4ccc5c(C(=O)NC6CC6)c(C)sc5c4)c3s2)C1 [Example 11, 6-[(2-{[(3R)-3-methoxypyrrolidin-1-yl]carbonyl}thieno[3,2-b]pyridin-7-yl)oxy]-2-methylbenzo[b]thiophene-3-carboxylic acid cyclopropylamide] | 93 | 0.492 | 0.56 | 104 | 40
15 | CO[C@@H]1CCN(C(=O)c2cc3nccc(Oc4ccc5c(C(=O)NCCN6CCOCC6)c(C)oc5c4)c3s2)C1 [Example 90, 6-[2-(3-Methoxy-pyrrolidine-1-carbonyl)-thieno[3,2-b]pyridin-7-yloxy]-2-methyl-benzofuran-3-carboxylic acid (2-morpholin-4-yl-ethyl)-amide] | 93 | 0.739 | 2.14 | 33 | 745
16 | CNC(=O)c1c(C)n(C)c2cc(Oc3ccnc4cc(C(=O)N(C)C)sc34)ccc12 [Example 33, 7-({1,2-Dimethyl-3-[(methylamino)carbonyl]-1H-indol-6-yl}oxy)-N,N-dimethylthieno[3,2-b]pyridine-2-carboxamide] | 61 | 11.5 | 10 | 63 | 10000
17 | Cc1c(C(=O)Nc2ccccn2)c2ccc(Oc3ccnc4cc(-c5nccn5C)sc34)cc2n1C [Example 69, 1,2-Dimethyl-6-[2-(1-methyl-1H-imidazol-2-yl)-thieno[3,2-b]pyridin-7-yloxy]-1H-indole-3-carboxylic acid pyridin-2-ylamide] | 95 | 0.3 | 0.57 | 6.52 | 4310
18 | Cc1sc2cc(Oc3ccnc4cc(C(=O)N5CC[C@@H](O)C5)sc34)ccc2c1C(=O)NCC1CC1 [Example 126, 6[(2-{[(3R)-3-Hydroxypyrrolidin-1-yl]carbonyl}thieno[3,2-b]pyridin-7-yl)oxy]-2-methylbenzo[b]thiophene-3-carboxylic acid (cyclopropylmethyl)amide] | 96 | 0.59 | 10 | 336 | 5660
19 | Cc1oc2cc(Oc3ccnc4ccsc34)ccc2c1C(=O)NCCc1c[nH]c2cc(F)ccc12 [Example 104, 2-Methyl-6-(thieno[3,2-b]pyridin-7-yloxy)-benzofuran-3-carboxylic acid [2-(6-fluoro-1H-indol-3-yl)ethyl]-amide] | 100 | – | 8.4 | 164 | 227
20 | Cc1oc2cc(Oc3ccnc4ccsc34)ccc2c1C(=O)Nc1ccc(N2CCOCC2)nc1 [Example 102, 2-Methyl-6-(thieno[3,2-b]pyridin-7-yloxy)benzofuran-3-carboxylic acid (6-morpholin-4-yl-pyridin-3-yl)amide] | 96 | 0.91 | 0.186 | 49 | 1720
21 | Cc1oc2cc(Oc3ccnc4cc(-c5nccn5C)sc34)ccc2c1C(=O)NCC(C)C [Example 84, 2-Methyl-6-[2-(1-methyl-1H-imidazol-2-yl)-thieno[3,2-b]pyridin-7-yloxy]-benzofuran-3-carboxylic acid isobutyl amide] | 94 | 0.58 | 0.322 | 12.4 | 429
